Test results from patent US10442807B2, “Aryl substituted bicyclic compounds as herbicides” (FMC Corporation, priority 2015, dated 2019).

Legend:
Assay type in all cases: in vivo
[1] = tested on: ryegrass, Italian (Italian ryegrass, Lolium multiflorum); test: Test A preemergence, directed soil spray, visual injury rating; conditions: approx. 10 d, 0 = no effect, 100 = complete control
From the text: (§1) Seeds of plant species selected from barnyardgrass (Echinochloa crus-galli), kochia (Kochia scoparia), ragweed (common ragweed, Ambrosia elation), ryegrass, Italian (Italian ryegrass, Lolium multiflorum), foxtail, giant (giant foxtail, Setaria faberii), and pigweed (Amaranthus retroflexus), were planted into a blend of loam soil and sand and treated preemergence with a directed soil spray using test chemicals formulated in a non-phytotoxic solvent mixture which included a surfactant. At the same time, plants selected from these weed species and also blackgrass (Alopecurus myosuroides), galium (catchweed bedstraw, Galium aparine), wheat (Triticum aestivum), and corn (Zea mays) were planted in pots containing the same blend of loam soil and sand and treated with postemergence applications of test chemicals formulated in the same manner. Plants ranged in height from 2 to 10 cm and were in the one- to two-leaf stage for the postemergence treatment. Treated plants and untreated controls were maintained in a greenhouse for approximately 10 d, after which time all treated plants were compared to untreated controls and visually evaluated for injury. Plant response ratings, summarized in Table A, are based on a 0 to 100 scale where 0 is no effect and 100 is complete control. A dash (-) response means no test result.

[2] = tested on: barnyardgrass (Echinochloa crus-galli); test: as above; conditions: approx. 10 d, 0 = no effect, 100 = complete control
From the text: as §1

[3] = tested on: kochia (Kochia scoparia); test: as above; conditions: approx. 10 d, 0 = no effect, 100 = complete control
From the text: as §1

[4] = tested on: ragweed (common ragweed, Ambrosia elation); test: as above; conditions: approx. 10 d, 0 = no effect, 100 = complete control
From the text: as §1

[5] = tested on: foxtail, giant (giant foxtail, Setaria faberii); test: as above; conditions: approx. 10 d, 0 = no effect, 100 = complete control
From the text: as §1

[6] = tested on: pigweed (Amaranthus retroflexus); test: as above; conditions: approx. 10 d, 0 = no effect, 100 = complete control
From the text: as §1

[7] = tested on: rice (Oryza sativa); test: Test B flooded paddy test, visual plant response rating; conditions: 250 g ai/ha; applied to paddy water at 2-leaf stage; rated after 13 to 15 days; scale 0 to 100, 0 is no effect, 100 is complete control
From the text: (§2) At time of treatment, test pots were flooded to 3 cm above the soil surface, treated by application of test compounds directly to the paddy water, and then maintained at that water depth for the duration of the test. Treated plants and controls were maintained in a greenhouse for 13 to 15 days, after which time all species were compared to controls and visually evaluated. Plant response ratings, summarized in Table B, are based on a scale of 0 to 100 where 0 is no effect and 100 is complete control. A dash (-) response means no test result.

[8] = tested on: ducksalad (Heteranthera limosa); test: as above; conditions: 250 g ai/ha; applied to paddy water at 2-leaf stage; rated after 13 to 15 days; scale 0 to 100, 0 is no effect, 100 is complete control
From the text: as §2

[9] = tested on: barnyardgrass (Echinochloa crus-galli); test: as above; conditions: 250 g ai/ha; applied to paddy water at 2-leaf stage; rated after 13 to 15 days; scale 0 to 100, 0 is no effect, 100 is complete control
From the text: as §2

[10] = tested on: sedge, umbrella (small-flower umbrella sedge, Cyperus difformis); test: as above; conditions: 250 g ai/ha; applied to paddy water at 2-leaf stage; rated after 13 to 15 days; scale 0 to 100, 0 is no effect, 100 is complete control
From the text: as §2

[11] = tested on: wheat (Triticum aestivum); test: Test A postemergence application, visual injury rating; conditions: approx. 10 d, 0 = no effect, 100 = complete control
From the text: as §1

[12] = tested on: corn (Zea mays); test: as above; conditions: approx. 10 d, 0 = no effect, 100 = complete control
From the text: as §1

[13] = tested on: ryegrass, Italian (Italian ryegrass, Lolium multiflorum); test: as above; conditions: approx. 10 d, 0 = no effect, 100 = complete control
From the text: as §1

[14] = tested on: barnyardgrass (Echinochloa crus-galli); test: as above; conditions: approx. 10 d, 0 = no effect, 100 = complete control
From the text: as §1

[15] = tested on: blackgrass (Alopecurus myosuroides); test: as above; conditions: approx. 10 d, 0 = no effect, 100 = complete control
From the text: as §1

[16] = tested on: kochia (Kochia scoparia); test: as above; conditions: approx. 10 d, 0 = no effect, 100 = complete control
From the text: as §1

[17] = tested on: ragweed (common ragweed, Ambrosia elation); test: as above; conditions: approx. 10 d, 0 = no effect, 100 = complete control
From the text: as §1

[18] = tested on: foxtail, giant (giant foxtail, Setaria faberii); test: as above; conditions: approx. 10 d, 0 = no effect, 100 = complete control
From the text: as §1

[19] = tested on: pigweed (Amaranthus retroflexus); test: as above; conditions: approx. 10 d, 0 = no effect, 100 = complete control
From the text: as §1

[20] = tested on: galium (catchweed bedstraw, Galium aparine); test: as above; conditions: approx. 10 d, 0 = no effect, 100 = complete control
From the text: as §1

| SMILES | Ryegrass, Italian plant response rating (0 to 100 scale) ([1]; 125 g ai/ha) | Ryegrass, Italian plant response rating (0 to 100 scale) ([1]; 500 g ai/ha) | Barnyardgrass plant response rating (0 to 100 scale) ([2]; 125 g ai/ha) | Barnyardgrass plant response rating (0 to 100 scale) ([2]; 500 g ai/ha) | Kochia plant response rating (0 to 100 scale) ([3]; 125 g ai/ha) | Kochia plant response rating (0 to 100 scale) ([3]; 500 g ai/ha) | Ragweed plant response rating (0 to 100 scale) ([4]; 125 g ai/ha) | Ragweed plant response rating (0 to 100 scale) ([4]; 500 g ai/ha) | Foxtail, Giant plant response rating (0 to 100 scale) ([5]; 125 g ai/ha) | Foxtail, Giant plant response rating (0 to 100 scale) ([5]; 500 g ai/ha) | Pigweed plant response rating (0 to 100 scale) ([6]; 125 g ai/ha) | Pigweed plant response rating (0 to 100 scale) ([6]; 500 g ai/ha) | Plant response rating, Flood, Rice [7] | Plant response rating, Flood, Ducksalad [8] | Plant response rating, Flood, Barnyardgrass [9] | Plant response rating, Flood, Sedge, Umbrella [10] | Wheat plant response rating (0 to 100 scale) ([11]; 125 g ai/ha) | Wheat plant response rating (0 to 100 scale) ([11]; 500 g ai/ha) | Corn plant response rating (0 to 100 scale) ([12]; 125 g ai/ha) | Corn plant response rating (0 to 100 scale) ([12]; 500 g ai/ha) | further results |
| --- | --- | --- | --- | --- | --- | --- | --- | --- | --- | --- | --- | --- | --- | --- | --- | --- | --- | --- | --- | --- | --- |
| Cc1nnc2n1CC(c1ccc(Cl)cc1)C2C(=O)Nc1cccc(F)c1F (stereo not drawn) [Compound 5] | 20 | 30 | 30 | 80 | 0 | 50 | 0 | 40 | 50 | 90 | 0 | 0 | 0 | 20 | 40 | 0 | 0 | 20 | 20 | 30 | Ryegrass, Italian plant response rating (0 to 100 scale) ([13]; 125 g ai/ha): 0; Ryegrass, Italian plant response rating (0 to 100 scale) ([13]; 500 g ai/ha): 20; Barnyardgrass plant response rating (0 to 100 scale) ([14]; 125 g ai/ha): 20; Barnyardgrass plant response rating (0 to 100 scale) ([14]; 500 g ai/ha): 80; Blackgrass plant response rating (0 to 100 scale) ([15]; 125 g ai/ha): 0; Blackgrass plant response rating (0 to 100 scale) ([15]; 500 g ai/ha): 20; Kochia plant response rating (0 to 100 scale) ([16]; 125 g ai/ha): 0; Kochia plant response rating (0 to 100 scale) ([16]; 500 g ai/ha): 30; Ragweed plant response rating (0 to 100 scale) ([17]; 125 g ai/ha): 0; Ragweed plant response rating (0 to 100 scale) ([17]; 500 g ai/ha): 20; Foxtail, Giant plant response rating (0 to 100 scale) ([18]; 125 g ai/ha): 30; Foxtail, Giant plant response rating (0 to 100 scale) ([18]; 500 g ai/ha): 80; Pigweed plant response rating (0 to 100 scale) ([19]; 125 g ai/ha): 0; Pigweed plant response rating (0 to 100 scale) ([19]; 500 g ai/ha): 20; Galium plant response rating (0 to 100 scale) ([20]; 125 g ai/ha): 40; Galium plant response rating (0 to 100 scale) ([20]; 500 g ai/ha): 70 |
| Cc1nnc2n1CC(c1ccc(C(F)(F)F)cc1)C2C(=O)Nc1ccccc1C(F)(F)F (stereo not drawn) [Compound 6] | 40 | 60 | 0 | 40 | 0 | 0 | 0 | 0 | 0 | 90 | 0 | 40 | 0 | 0 | 0 | 0 | 0 | 0 | 0 | 0 | Ryegrass, Italian plant response rating (0 to 100 scale) ([13]; 125 g ai/ha): 0; Ryegrass, Italian plant response rating (0 to 100 scale) ([13]; 500 g ai/ha): 20; Barnyardgrass plant response rating (0 to 100 scale) ([14]; 125 g ai/ha): 0; Barnyardgrass plant response rating (0 to 100 scale) ([14]; 500 g ai/ha): 40; Blackgrass plant response rating (0 to 100 scale) ([15]; 125 g ai/ha): 0; Blackgrass plant response rating (0 to 100 scale) ([15]; 500 g ai/ha): 20; Kochia plant response rating (0 to 100 scale) ([16]; 125 g ai/ha): 0; Kochia plant response rating (0 to 100 scale) ([16]; 500 g ai/ha): 0; Ragweed plant response rating (0 to 100 scale) ([17]; 125 g ai/ha): 0; Ragweed plant response rating (0 to 100 scale) ([17]; 500 g ai/ha): 0; Foxtail, Giant plant response rating (0 to 100 scale) ([18]; 125 g ai/ha): 0; Foxtail, Giant plant response rating (0 to 100 scale) ([18]; 500 g ai/ha): 30; Pigweed plant response rating (0 to 100 scale) ([19]; 125 g ai/ha): 0; Pigweed plant response rating (0 to 100 scale) ([19]; 500 g ai/ha): 0; Galium plant response rating (0 to 100 scale) ([20]; 125 g ai/ha): 0; Galium plant response rating (0 to 100 scale) ([20]; 500 g ai/ha): 30 |
